Earlier results in patent publication US6607711B2, “Mouth hygienic composition for the treatment of halitosis” (priority 1997, dated 2003).

Conditions: amount in grams of the compound which can be dissolved per gram solvent (H2O)

Q: For `[Cl-].[Cl-].[Zn+2]` [Zinc chloride], which “Solubility (g/g H2O)” value is on record?
A: Its value is 4.3 g/g H2O.
